According to patent US20230103631A1, “PEPTIDES AS SELECTIVE GIP RECEPTOR AGONISTS” (Sanofi, priority 2020, published 2023):
*1 amine or outer side, *2 acyl side, *3 side chain or, on linkers, in order; H or OH if unused. Where a SMILES comes first, the peptide text is derived from it. Side-chain parts run from the residue outwards. [ ]: non-standard residue; d: D form. The star is where a group is joined. C20 diacid = O=C(O)CCCCCCCCCCCCCCCCCCC(=O)*; C18 diacid = O=C(O)CCCCCCCCCCCCCCCCC(=O)*; γGlu = O=C(O)[C@H](CCC(=O)[*:2])N[*:1]; AEEA = NCCOCCOCC(=O)O; Aib = CC(C)(N)C(=O)O

Experiments:
[1] = Chemical stability assessment (relative purity loss by UHPLC-UV); type: physicochemical; details: Chemical stability buffer system A: 20 mM phosphate buffer pH 7.4
Experimental: Purity of a peptide batch was determined through UHPLC/MS prior to chemical stability measurement. The target concentration was […] pure compound. Solutions from solid samples were prepared in the following buffer systems with a concentration of ˜300 μM compound based on the previously determined % purity:
Chemical stability buffer system A) 20 mM phosphate buffer pH 7.4,
Chemical stability buffer system B) 8 mM phosphate buffer pH 7.4, 14 mg/ml propylene glycol, 5.5 mg/ml phenol
Chemical stability buffer system C) 100 mM phosphate buffer pH 7.4, 2.7 mg/ml m-cresol
Prepared solutions were filtered through […] pore size and filled into sterilized glass containers under laminar flow conditions.
Glass containers were stored for 28 days at 5 and 40° C. After this time, the samples were centrifuged for 15 min at 2500 RCF. Then 1.5 μl of the undiluted supernatant were analysed with UHPLC-UV.
The chemical stability was rated through the relative loss of purity calculated by the equation:
[(purity after 28 days at 5° C.)−(purity after 28 days at 40° C.)]/(purity after 28 days at 5° C.)]*100%
The purity is calculated as
[(peak area peptide)/(total peak area)]*100%
The analytical methods used were Analytical UHPLC Method B or C.
Peptide samples were prepared in Chemical stability buffer system A or B and stability was assessed as described in Methods.

physchem = type: physicochemical; details: for Soluble amount: 24 h, pH 7.4; for solubility at 24 h: pH 7.4, Soluble amount
Outline: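 Peptide at 10 mg/ml (purity-corrected) in 100 mM phosphate pH 7.4, alone or with 2.7 mg/ml m-cresol; 1 h gentle agitation, then 24 h at 5 °C. Supernatant after 15 min at 2500 RCF quantified by UHPLC-UV against reference peptide, adjusted for extinction coefficients.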

[2] = target: human GLP-1 receptor (hGLP-1R) (Homo sapiens, UniProt P43220); assay: cAMP HTRF assay, HEK-293 cell line over-expressing human GLP-1 receptor; type: cell-based; details: HEK-293, cAMP, 0% HSA
Outline: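 Thawed HEK-293 cells over-expressing human GLP-1R (5000 cells/well) in HBSS/20 mM HEPES buffer, with 0.1% HSA where stated, incubated with compound for 30 min at room temperature. Generated cAMP quantified by HTRF.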

human GIP receptor = target: T1, human GIP receptor (Homo sapiens, UniProt P48546); assay: cAMP HTRF assay in human adipocytes endogenously expressing the human GIP receptor; type: cell-based; details: for EC50: read-out: hGIPR EC50; for Emax: read-out: hGIPR Emax
T1 construct: human adipocytes endogenously expressing the human GIP receptor; host or cells: human preadipocytes (Lonza) differentiated to adipocytes
T1 sequence (P48546 22-466): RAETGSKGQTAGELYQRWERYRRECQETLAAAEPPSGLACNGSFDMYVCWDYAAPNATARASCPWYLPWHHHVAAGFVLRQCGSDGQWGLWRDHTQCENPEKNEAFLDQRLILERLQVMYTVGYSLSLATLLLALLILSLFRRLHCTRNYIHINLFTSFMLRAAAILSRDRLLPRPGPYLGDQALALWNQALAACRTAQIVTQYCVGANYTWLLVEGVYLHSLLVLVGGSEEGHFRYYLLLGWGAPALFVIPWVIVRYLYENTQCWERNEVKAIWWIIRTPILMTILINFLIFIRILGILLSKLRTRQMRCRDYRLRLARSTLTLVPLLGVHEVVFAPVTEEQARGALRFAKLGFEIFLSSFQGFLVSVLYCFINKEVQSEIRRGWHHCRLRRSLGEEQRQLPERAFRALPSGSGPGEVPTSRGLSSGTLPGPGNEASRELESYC
Experimental: For this, one vial of human preadipocytes (˜10^6 cells; Lonza) was thawed in a T-75 cell culture dish.
After 3 days, the cells were washed with PBS and 1.5 ml Trypsin, incubated for 4 min, then resuspended in medium, centrifugated for 10 min @ 300 rcf RT, resuspended again and distributed to four T-75 cell culture dishes.
After 5 days, the cells were washed with PBS and 1.5 ml Trypsin, incubated for 4 min, then resuspended in medium, centrifugated for 10 min @ 300 rcf RT, resuspended again and sawn in T-75 dishes (2.5×10^6 cells per dish) in 15 ml Differentiation medium each.
After 6 days of differentiation, 5000 cells per well were dispensed on a 96-well plate (#CLS3694 from Corning®, Sigma-Aldrich). For measurement of cAMP generation, 25 μL of test compound was added to each well of the 96-well plate, followed by incubation for 30 min at room temperature.
The cAMP generated following test compound stimulation was determined using a kit from Cisbio Corp. based on HTRF (Homogenous Time Resolved Fluorescence). The cAMP assay was performed according to manufacturer's instructions (Cisbio).
The cAMP content of cells was determined using a kit from Cisbio Corp. based on HTRF (Homogenous Time Resolved Fluorescence).

[3] = target: T2, human GIP receptor (hGIPR) (Homo sapiens, UniProt P48546); assay: Binding assay, displacement of [125I]GIP from HEK-293 membranes expressing GIPR; details: [125I]GIP displacement
T2 sequence (P48546 22-466): T1 sequence (P48546 22-466)
Experimental: HEK-293 cells recombinantly over-expressing GIPR or GLP-1R were grown to 50% confluency, washed with warm 1×PBS (Gibco) and detached in HEPES/EDTA-buffer (100 mM HEPES pH 7.5, 5 mM EDTA). Cells were harvested by centrifugation at 4° C. and 3000×g and the pellets were stored at −80° C. until further processing.
After thawing on ice, pellets were resuspended in HEPES/EDTA-buffer and homogenized on ice for 1 min using Ultra-Turray T25. After subsequent sonification the cell debris was removed by centrifugation at 1000×g and 4° C. Supernatants were then ultra-centrifuged at 100000×g and 4° C. under vacuum for 30 min. Pellets were resuspended in HEPES/EDTA/NaCl-buffer (20 mM HEPES, 1 mM EDTA, 150 mM NaCl; add 1 Complete Mini Protease inhibitor cocktail to 10 ml buffer) and protein content was determined via BCA-Protein assay.

Chain of human GLP-1 receptor (hGLP-1R) (P43220 24-463): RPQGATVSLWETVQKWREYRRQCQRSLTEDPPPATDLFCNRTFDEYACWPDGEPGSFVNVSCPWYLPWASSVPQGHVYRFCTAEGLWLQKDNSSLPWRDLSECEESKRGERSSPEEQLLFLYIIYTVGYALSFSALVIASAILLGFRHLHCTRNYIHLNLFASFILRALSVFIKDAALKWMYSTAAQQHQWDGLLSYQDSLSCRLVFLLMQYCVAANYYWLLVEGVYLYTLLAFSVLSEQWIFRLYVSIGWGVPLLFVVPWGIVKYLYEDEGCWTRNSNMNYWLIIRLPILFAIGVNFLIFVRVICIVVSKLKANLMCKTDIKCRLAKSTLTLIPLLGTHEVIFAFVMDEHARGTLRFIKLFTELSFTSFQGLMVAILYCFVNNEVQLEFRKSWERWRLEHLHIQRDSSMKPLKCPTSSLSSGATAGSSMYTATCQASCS

| SMILES | Relative purity loss over 28 days at 40° C. [1] [%] | Soluble amount (physchem) [mg/mL] | solubility at 24 h (physchem) [µg/mL] | EC50 [2] [nM] | EC50 (human GIP receptor) [nM] | Emax (human GIP receptor) [%] | IC50 [3] [nM] |
| --- | --- | --- | --- | --- | --- | --- | --- |
| CC[C@H](C)[C@H](NC(=O)[C@H](CCCNC(=N)N)NC(=O)[C@H](CC(=O)O)NC(=O)[C@H](CCCCNC(=O)CNC(=O)CNC(=O)CNC(=O)CC[C@H](NC(=O)CCCCCCCCCCCCCCCCC(=O)O)C(=O)O)NC(=O)C(C)(C)NC(=O)[C@@H](NC(=O)[C@H](CO)NC(=O)[C@H](CC(C)C)NC(=O)[C@H](CC(=O)O)NC(=O)[C@H](CO)NC(=O)[C@@H](NC(=O)[C@H](Cc1ccccc1)NC(=O)[C@@H](NC(=O)CNC(=O)[C@H](CCC(=O)O)NC(=O)C(C)(C)NC(=O)[C@@H](N)Cc1ccc(O)cc1)[C@@H](C)O)[C@@H](C)CC)[C@@H](C)CC)C(=O)N[C@@H](Cc1c[nH]cn1)C(=O)N[C@@H](CCC(N)=O)C(=O)NC(C)(C)C(=O)N[C@@H](CCC(=O)O)C(=O)N[C@@H](Cc1ccccc1)C(=O)N[C@H](C(=O)N[C@@H](CCC(=O)O)C(=O)N[C@@H](Cc1c[nH]c2ccccc12)C(=O)N[C@@H](CC(C)C)C(=O)N[C@@H](CC(C)C)C(=O)N[C@@H](C)C(=O)N[C@@H](CCC(N)=O)C(=O)NCC(=O)N1CCC[C@H]1C(=O)N[C@@H](CO)C(=O)N[C@@H](CO)C(=O)NCC(=O)N[C@@H](C)C(=O)N1CCC[C@H]1C(=O)N1CCC[C@H]1C(=O)N1CCC[C@H]1C(=O)N[C@@H](CO)C(N)=O)[C@@H](C)CC [SEQ ID NO: 5, H2N-Y-Aib-E-G-T-F-I-S-D-I-S-I-Aib-K[{Gly}3-gGlu-C18OH]-D-R-I-H-Q-Aib-E-F-I-E-W-I-L-A-Q-G-P-S-S-G-A-P-P-P-S-NH2] (H-Y[Aib]EGTFISDLSI[Aib]K([Gly-Gly-Gly-γGlu-C18 diacid])DRIHQ[Aib]EFIEWLLAQGPSSGAPPPS-NH2) | 5.8 | >8.3 | > 9300 | > 10 | 0.5 | 137 | 0.1 |
| CC[C@H](C)[C@H](NC(=O)[C@H](CCCNC(=N)N)NC(=O)[C@H](CC(=O)O)NC(=O)[C@H](CCCCNC(=O)COCCOCCNC(=O)COCCOCCNC(=O)CC[C@H](NC(=O)CCCCCCCCCCCCCCCCCCC(=O)O)C(=O)O)NC(=O)C(C)(C)NC(=O)[C@@H](NC(=O)[C@H](CO)NC(=O)[C@H](CC(C)C)NC(=O)[C@H](CC(=O)O)NC(=O)[C@H](CO)NC(=O)[C@@H](NC(=O)[C@H](Cc1ccccc1)NC(=O)[C@@H](NC(=O)CNC(=O)[C@H](CCC(=O)O)NC(=O)C(C)(C)NC(=O)[C@@H](N)Cc1ccc(O)cc1)[C@@H](C)O)[C@@H](C)CC)[C@@H](C)CC)C(=O)N[C@@H](Cc1c[nH]cn1)C(=O)N[C@@H](CCC(N)=O)C(=O)NC(C)(C)C(=O)N[C@@H](CCC(=O)O)C(=O)N[C@@H](Cc1ccccc1)C(=O)N[C@H](C(=O)N[C@@H](CCC(=O)O)C(=O)N[C@@H](Cc1c[nH]c2ccccc12)C(=O)N[C@@H](CC(C)C)C(=O)N[C@@H](CC(C)C)C(=O)N[C@@H](C)C(=O)N[C@@H](CCC(N)=O)C(=O)NCC(=O)N1CCC[C@H]1C(=O)N[C@@H](CO)C(=O)N[C@@H](CO)C(=O)NCC(=O)N[C@@H](C)C(=O)N1CCC[C@H]1C(=O)N1CCC[C@H]1C(=O)N1CCC[C@H]1C(=O)N[C@@H](CO)C(N)=O)[C@@H](C)CC [SEQ ID NO: 7, H2N-Y-Aib-E-G-T-F-I-S-D-I-S-I-Aib-K[{AEEA}2-gGlu-C20OH]-D-R-I-H-Q-Aib-E-F-I-E-W-I-L-A-Q-G-P-S-S-G-A-P-P-P-S-NH2] (H-Y[Aib]EGTFISDLSI[Aib]K([AEEA-AEEA-γGlu-C20 diacid])DRIHQ[Aib]EFIEWLLAQGPSSGAPPPS-NH2) | 4.5 | >5.9 | > 6900 | > 10 | 0.3 | 121 | 0.2 |
